Holding throughout (assay): DTP human tumour cell line panel, 48 h
Test [1] relates to MOLT-4 leukemia.
For test [2], the system named is HOP-62 NSCLC.
Test [3] has as its system MCF7 breast.
Test [4] concerns MDA-MB-435.
Test [5] concerns 786-0 renal.
For test [6], the system named is MALME-3M melanoma.
Test [7] deals with CAKI-1 renal.
In test [8] the test system is M14 melanoma.
In test [9] the test system is SNB-75 CNS.
For test [10], the system named is A549 NSCLC.

Each structure is given as a SMILES string. Where “and” joins values, the source holds several entries; their conditions need not be identical. Equal values may be shown once.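 Interpolation was linear, between the two tested concentrations surrounding the appropriate level; five concentrations were tested over 48 hours in 96-well plates. The concentration for 50% growth inhibition is given as GI50. TGI marks complete inhibition of growth.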 Where a SMILES comes first, the peptide text is derived from it. [ ]: non-standard residue; d: D form. The star is where a group is joined. Phe(4-NO2) = N[CH](Cc1ccc([N+](=O)[O-])cc1)C(=O)O; Palmitoyl = CCCCCCCCCCCCCCCC(=O)*; Boc = CC(C)(C)OC(=O)*; OtBu = CC(C)(C)O*

With `CCC1(O)CN(CCOC)[C@H]2C[C@@H]1C(=O)c1[nH]c3ccccc3c12` (stereo partly specified), the TGI in test [1], in test [2], in [3], in test [4], in test [5] and in test [6] was over 100 µM each time. Moreover, the TGI in [7], in test [8], in test [9] and in test [10] was over 100 µM in each case.

As for `Cc1nc(C(N)=S)sc1C(=O)CC(=O)C(=O)Nc1cccc(Cl)c1C`, the total growth inhibition concentration (TGI) in [1], in test [2], in [3], in [4], in [5] and in test [6] was over 100 µM each time. Also, the TGI in test [7], in [8], in [9] and in test [10] was over 100 µM throughout.

`O=C(NCCCCl)c1c(O)c2ccccc2[nH]c1=O`: the TGI in test [1], in test [2], in [3], in test [4], in test [5] and in test [6] was over 100 µM in each case. In addition, the TGI was over 100 µM in [7], over 100 µM in test [8], over 77.8 µM in [9] and over 100 µM in test [10].

In the case of `Clc1ncc(C(Cl)(Cl)Cl)nc1-c1ccccc1`, the TGI in test [1] stood at 28.9 µM; in test [2], 6.08 µM; in test [3], 3.44 µM; in [4] it was 3.54 µM; in test [5] it was 5.77 µM; in test [6] it was 19.1 µM. Moreover, the TGI in test [7] worked out at 5.46 µM; in [8] it was 5.88 µM; in test [9], 6.24 µM; in test [10], 22.5 µM.

On to `COC1=CC2(C=CC1=O)CCN=c1c(O)c3c(c(O)c12)=NC=N3` (stereo unspecified), for which the total growth inhibition concentration (TGI) in test [1], in test [2], in test [3], in test [4], in test [5] and in [6] was over 100 µM throughout. For the same compound, the TGI in [7], in test [8], in test [9] and in test [10] was over 100 µM each time.

With `COc1cc2c(cc1OC)C1Cc3ccccc3CN1CCC2` (stereo unspecified), the TGI in [1], in test [2], in test [3], in test [4], in test [5] and in [6] was over 100 µM each time. Moreover, the TGI in test [7], in [8], in test [9] and in [10] was over 100 µM each time.

Turning to `COC(=O)C(Cc1ccc([N+](=O)[O-])cc1)NC(=O)C(CC(=O)OC(C)(C)C)NC(=O)OC(C)(C)C` (stereo unspecified) (Boc-Asp(OtBu)-[Phe(4-NO2)]-OMe; configuration not given here), the total growth inhibition concentration (TGI) in [1], in test [2], in test [3], in test [4], in [5] and in test [6] was over 100 µM each time. For the same compound, the TGI in [7], in test [8], in [9] and in test [10] was over 100 µM each time.

Take `O=C(CCCN1CCc2[nH]c3cc(F)ccc3c2C1)c1ccc(F)cc1`: the total growth inhibition concentration (TGI) in test [1] is 29 µM; in test [2], 29.8 µM; in [3], 18.3 µM; in test [4], 25.6 µM; in test [5], 26.6 µM; in test [6], 26 µM. The TGI in [7] is over 100 µM; in [8], 22.2 µM; in [9], 22.9 µM; in test [10] it was 29.5 µM.

`CCOc1cc(C=O)ccc1O`: the TGI in [1], in test [2], in [3], in [4], in test [5] and in test [6] was over 100 µM in each case. The TGI in [7], in test [8], in test [9] and in test [10] was over 100 µM throughout.

Turning to `COc1ccc(S(=O)(=O)Nc2ccc(-c3csc(N4C(=O)/C(=C/C=C\c5ccccc5)N=C4c4ccccc4)n3)cc2)cc1Cl`, the TGI in test [1] is over 100 µM; in [2], over 100 µM; in test [3], over 100 µM; in test [4] it was 62 µM; in test [5], over 100 µM; in test [6] it was 63.1 µM. Further, the total growth inhibition concentration (TGI) in [7] is over 100 µM; in test [8], 83.6 µM; in test [9] it was over 100 µM; in test [10], over 100 µM.

In the case of `CCOP(=O)(OCC)C(F)(F)CC1CCCCC1`, the concentration for total growth inhibition (TGI) in test [1], in test [2], in [3], in [4], in test [5] and in test [6] was over 10 µM throughout. Besides, the TGI in [7], in test [8], in test [9] and in test [10] was over 10 µM each time.

As to `CC(=O)c1nccc2c1c(C)nc1ccccc12`, the TGI in [1], in test [2], in test [3], in test [4], in test [6] and in [7] was over 100 µM each time. Besides, the TGI in test [8], in test [9] and in test [10] was over 100 µM in each case.

With `CCOC(=O)Cc1nc2c(=O)[nH]cnc2n1C1OC(COC(C)=O)C(OC(C)=O)C1OC(C)=O` (stereo unspecified), the concentration for total growth inhibition (TGI) in [1], in [2], in test [3], in test [4], in [5] and in [6] was over 100 µM each time. For the same compound, the TGI in test [7], in test [8], in [9] and in test [10] was over 100 µM throughout.

Consider `COc1ccc(C[C@H]2COC(=O)[C@@H]2Cc2cc(OC)c(OC)c(OC)c2)cc1OC`, for which the TGI in [1], in [2], in [3], in test [4], in test [5] and in [6] was over 100 µM throughout. Besides, the TGI in [7], in test [8], in test [9] and in [10] was over 100 µM throughout.

Take `CN1C/C(=C\c2ccccc2[N+](=O)[O-])C(=O)/C(=C/c2ccccc2[N+](=O)[O-])C1`: the GI50 in test [1] was 0.308 µM; in test [4], 0.86 µM and 0.254 µM; in test [6], 1.29 µM and 0.216 µM; in test [7], 0.475 µM and 0.234 µM; in [8], 1.76 µM and 0.298 µM. Further, the TGI in test [1] was 1.02 µM and 0.572 µM; in test [2], 7.8 µM and 8.77 µM; in [3], 1.94 µM and 3.04 µM; in [4], 3.1 µM and 0.706 µM; in test [5] it was 1.01 µM and 0.467 µM; in test [6], 2.73 µM and 0.505 µM. Also, the TGI in test [7] is 1.41 µM and 0.545 µM; in test [8] it was 4.17 µM and 0.876 µM; in [9] it was 6.77 µM and 7.57 µM; in test [10], 14.4 µM and 12.9 µM.

As for `COC1(OC)/C(=C(\N)C=O)NC(C)(C)N1O`, the TGI in test [1], in [2], in test [3], in test [4], in [5] and in test [6] was over 100 µM throughout. Further, the TGI in test [7], in [8], in [9] and in test [10] was over 100 µM in each case.

With `COC(=O)c1cc2c3c(c(C(C)=O)c(OC)c2[nH]1)NCC3`, the TGI in [1], in test [2], in test [3], in [4], in test [5] and in [6] was over 50 µM in each case. Also, the TGI in test [7], in test [8] and in test [9] was over 50 µM in each case.

`CC(C)[Si]1(C(C)C)OCC2OC(n3cnc4c(N)ncnc43)C(N)C2O[Si](C(C)C)(C(C)C)O1` (stereo unspecified): the TGI in test [1] was 7.84 µM; in test [2], over 49.5 µM; in test [3], 8.56 µM; in test [4] it was 30.7 µM; in test [5] it was 28.3 µM; in test [6], over 100 µM. The TGI in test [7] stood at 35.3 µM; in [8], 26.3 µM; in test [9] it was 25.1 µM; in test [10], 49.5 µM.

`CCCCCCCCCCCCCCCC(=O)NC(CCCCN)C(=O)NCC(=O)NC(Cc1ccccc1)C(=O)N1CCCC1C(=O)NC(CO)C(=O)NC(Cc1ccc(O)cc1)C(=O)NC(CCCCN)C(=O)NC(CC(C)C)C(=O)NC(CCCN=C(N)N)C(=O)N1CCCC1C(=O)NCC(N)=O` (stereo unspecified) (Palmitoyl-KGFPSYKLRPG-NH2; configuration not given here): the GI50 in [1] was 16.5 µM; in test [2], 24.4 µM; in test [3] it was 21.1 µM; in [4], 19 µM; in test [6] it was over 100 µM; in [7] it was 16.4 µM. Moreover, the GI50 in [8] was 18.4 µM; in [9] it was 22.7 µM; in [10], 19.5 µM. Also, the TGI in test [1] was 32.7 µM; in test [2], 53.6 µM; in test [3], 44 µM; in [4], 50.8 µM; in test [6] it was over 100 µM; in test [7] it was 42.8 µM. The TGI in [8] was determined as 37.9 µM; in test [9] it was 49.6 µM; in test [10] it was 44.4 µM.

For `COC1(OC)N=C(N)C2(C#N)/C(=N/N(C)C)CC(C)C12C#N` (stereo unspecified), the TGI in [1], in test [2], in [3], in test [4], in test [5] and in test [6] was over 100 µM each time. In addition, the TGI in [7], in test [8], in test [9] and in [10] was over 100 µM in each case.

`O=C(Cc1nc2ccc([N+](=O)[O-])cc2[nH]c1=O)C(=O)Nc1cc(Cl)c(Cl)cc1Cl`: the TGI in [1], in test [2], in test [3], in [4], in [5] and in [6] was over 100 µM in each case. The total growth inhibition concentration (TGI) in test [7], in test [8], in test [9] and in [10] was over 100 µM in each case.

On to `COc1ccc([C@@]23CCC(=O)C[C@@H]2N(C)CC3)cc1OC`, for which the TGI in [1], in [2], in test [3], in test [4], in test [5] and in [6] was over 100 µM each time. Also, the TGI in test [7], in [8], in test [9] and in [10] was over 100 µM each time.

As to `CSc1nc(Br)nc2c1ncn2C1CC(Oc2ccc(C)cc2)C(COc2ccc(C)cc2)O1` (stereo unspecified), the TGI in test [1], in test [2], in test [3], in [4], in test [5] and in test [6] was over 100 µM in each case. For the same compound, the TGI was over 100 µM in [7], over 100 µM in test [8], 94.6 µM in test [9] and over 100 µM in [10].

Turning to `COc1ccc(C=O)cc1Oc1ccc(C[C@H]2c3c(cc(OC)c4c3Oc3cc5c(cc3O4)CCN(C)C5=O)CCN2C)cc1`, the TGI in test [1] is 21.7 µM; in [2], 15.1 µM; in test [3], 22.5 µM; in test [4] it was 21.7 µM; in [5], 16.3 µM; in test [6], 20.2 µM. Moreover, the TGI is over 50 µM in test [7], 19.1 µM in [8], 14 µM in [9] and over 50 µM in [10].

On to `CC(=O)OCC1OC(n2c3c(c(-c4ccco4)c(C#N)c2=S)CCCC3)C(OC(C)=O)C(OC(C)=O)C1OC(C)=O` (stereo unspecified), for which the TGI was over 31.6 µM in test [1]; 21.8 µM in test [2]; over 100 µM in test [3]; over 100 µM in [4]; 52.6 µM in [5]; over 31.6 µM in test [6]. For the same compound, the TGI in test [7] is 87.8 µM; in test [8] it was over 100 µM; in test [9], 24.6 µM; in test [10] it was over 31.6 µM.

One may read the TGI as the concentration giving total growth inhibition. Broadly, the GI50 is the concentration that inhibits growth by half.

(Values after PubChem BioAssay (NCI).)
